Legend:
Rats = assay: Test 2: Rose Bengal/green light photoillumination of the oval window, nystagmus test and swimming test for imbalance 24 hours later; type: in vivo; settings: 0.03 mg/kg intravenously at the beginning of photoillumination, 12 animals, dosage 0: 100 %
Protocol: Rats were anesthetized with pentobarbital, and with the body temperature maintained at 37°C with a heating pad, an aqueous solution of Rose Bengal was continuously infused into the femoral vein. The […] was then opened and the tympanic membrane, incus and malleus were removed taking care not to impair the inner ear.
Using a Hamamatsu Photonic xenon lamp, the oval window was irradiated with a green light of 540 nm via an optical fiber. Using a manipulator, the end of the fiber was fixed about 3 mm from the lateral wall of the cochlea.
Photoillumination was started 20 minutes after the beginning of Rose Bengal infusion and a solution of the test compound in polyethylene glycol (400)-water (1:1, v/v) was intravenously administered at the beginning of photoillumination. After 40 minutes of irradiation, both the photoillumination and Rose Bengal infusion were terminated, the wound was sutured, and the animal was allowed to regain consciousness. At 24 hours after termination of photoillumination, a nystagmus test and a swimming test for imbalance were performed.

Male Wistar rats = assay: Test 1: Rose Bengal/green light photo-illumination of the cochlear lateral wall, compound action potential (CAP) recorded by electrocochleography; type: in vivo; settings: 0.3 mg/kg injected intravenously 10 minutes prior to photo-illumination; 6 animals; vehicle only 12.0 min.
Protocol: Male Wistar rats (body weights 240 - 260 g) were anesthetized with pentobarbital. After tracheotomy, the animals were artificially ventilated with a Harvard 683 respirator. A solution of Rose Bengal (RB) in saline (10 mg/ml) was infused into the femoral vein at a speed of 24 µmoles/kg per hour. After initiation of Rose Bengal infusion, the left middle ear was opened and, for electrocochleography, the round window lead electrode was fixed in position. Thus, after incision of the skin and muscle of the neck region, the tympanic cavity was drilled with a miniature drill and a silver ball electrode was placed on the round window membrane for use as an active electrode. An indifferent electrode was placed in the middle of the back of the head. Thirty minutes after initiation of Rose Bengal infusion, the lateral wall of the cochlea was irradiated with a green light (540 nm) conducted from a light source (L-3306-01A, Hamamatsu Photonics) through an optical fiber. Using a manipulator, the free end of the optical fiber was fixed about 5 mm away from the lateral wall of the cochlea. In this arrangement, the compound action potential (CAP) was recorded at 1-minute intervals. The electrocochleogram was recorded with Nihon Kohden Neuropack II by averaging 128 clicks of 8 kHz at a sound pressure level of 100 dB. […]

SMILES: COC(=O)C1=C(C#N)NC(C)=C(C(=O)OC(C)C)C1c1cccc([N+](=O)[O-])c1 (stereo not drawn) [dihydropyridine compound A, Isopropyl 6-cyano-5-methoxycarbonyl-2-methyl-4-(3-nitrophenyl)-1,4-dihydropyridine-3-carboxylate]
- Incidence (%) imbalance (Rats; swimming test 24 hours after termination of photoillumination): 58.3%
- Incidence (%) Nystagmus (Rats; tested 24 hours after termination of photoillumination): 58.3%
- Action potential disappearance time (Male Wistar rats): 14.5 min
